One series concerns patients. Particulars: cited from earlier work.
For another series, the target named is T1, MXR (S1-M1-80 cells) (Homo sapiens, UniProt Q9UNQ0, R482G).
T1 construct: express high levels of a mitoxantrone transporter (Miyake et al. (1999) Cancer Res.59: 8-13); endogenous in cells; host or cells: S1-M1-80 (mitoxantrone-selected subline of S1 colon carcinoma cells)
T1 sequence (Q9UNQ0 1-655 R482G): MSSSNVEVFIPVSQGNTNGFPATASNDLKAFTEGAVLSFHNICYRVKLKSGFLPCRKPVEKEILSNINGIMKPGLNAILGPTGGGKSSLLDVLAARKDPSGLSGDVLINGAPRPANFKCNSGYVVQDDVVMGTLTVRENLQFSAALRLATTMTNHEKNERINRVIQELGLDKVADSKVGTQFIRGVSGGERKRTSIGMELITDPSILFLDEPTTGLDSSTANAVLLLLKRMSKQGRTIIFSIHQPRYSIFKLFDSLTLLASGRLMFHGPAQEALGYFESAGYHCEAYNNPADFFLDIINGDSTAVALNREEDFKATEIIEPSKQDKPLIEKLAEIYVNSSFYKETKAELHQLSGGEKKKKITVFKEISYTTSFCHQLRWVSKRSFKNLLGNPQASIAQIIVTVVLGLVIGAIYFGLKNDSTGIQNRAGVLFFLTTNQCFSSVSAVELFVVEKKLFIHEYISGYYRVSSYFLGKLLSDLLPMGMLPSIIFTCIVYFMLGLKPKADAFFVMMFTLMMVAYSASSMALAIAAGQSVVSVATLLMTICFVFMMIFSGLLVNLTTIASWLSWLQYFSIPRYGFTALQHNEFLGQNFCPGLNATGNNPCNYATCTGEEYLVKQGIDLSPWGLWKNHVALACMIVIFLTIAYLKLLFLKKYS
Briefly: Rhodamine efflux assay (flow cytometry). It counts as cell-based. Particulars: S1-M1-80 cells. On the procedure: To provide confirmation, rhodamine efflux assays were performed. […] The results are depicted in FIG. 2.

Another series deals with T2, Pgp (S1-B1-20 cells) (Homo sapiens, UniProt P08183).
T2 construct: The S1-B1-20 cells overexpress Pgp; endogenous in cells; host or cells: S1-B1-20 (Pgp-overexpressing subline of S1 colon carcinoma cells)
T2 sequence (P08183 whole entry): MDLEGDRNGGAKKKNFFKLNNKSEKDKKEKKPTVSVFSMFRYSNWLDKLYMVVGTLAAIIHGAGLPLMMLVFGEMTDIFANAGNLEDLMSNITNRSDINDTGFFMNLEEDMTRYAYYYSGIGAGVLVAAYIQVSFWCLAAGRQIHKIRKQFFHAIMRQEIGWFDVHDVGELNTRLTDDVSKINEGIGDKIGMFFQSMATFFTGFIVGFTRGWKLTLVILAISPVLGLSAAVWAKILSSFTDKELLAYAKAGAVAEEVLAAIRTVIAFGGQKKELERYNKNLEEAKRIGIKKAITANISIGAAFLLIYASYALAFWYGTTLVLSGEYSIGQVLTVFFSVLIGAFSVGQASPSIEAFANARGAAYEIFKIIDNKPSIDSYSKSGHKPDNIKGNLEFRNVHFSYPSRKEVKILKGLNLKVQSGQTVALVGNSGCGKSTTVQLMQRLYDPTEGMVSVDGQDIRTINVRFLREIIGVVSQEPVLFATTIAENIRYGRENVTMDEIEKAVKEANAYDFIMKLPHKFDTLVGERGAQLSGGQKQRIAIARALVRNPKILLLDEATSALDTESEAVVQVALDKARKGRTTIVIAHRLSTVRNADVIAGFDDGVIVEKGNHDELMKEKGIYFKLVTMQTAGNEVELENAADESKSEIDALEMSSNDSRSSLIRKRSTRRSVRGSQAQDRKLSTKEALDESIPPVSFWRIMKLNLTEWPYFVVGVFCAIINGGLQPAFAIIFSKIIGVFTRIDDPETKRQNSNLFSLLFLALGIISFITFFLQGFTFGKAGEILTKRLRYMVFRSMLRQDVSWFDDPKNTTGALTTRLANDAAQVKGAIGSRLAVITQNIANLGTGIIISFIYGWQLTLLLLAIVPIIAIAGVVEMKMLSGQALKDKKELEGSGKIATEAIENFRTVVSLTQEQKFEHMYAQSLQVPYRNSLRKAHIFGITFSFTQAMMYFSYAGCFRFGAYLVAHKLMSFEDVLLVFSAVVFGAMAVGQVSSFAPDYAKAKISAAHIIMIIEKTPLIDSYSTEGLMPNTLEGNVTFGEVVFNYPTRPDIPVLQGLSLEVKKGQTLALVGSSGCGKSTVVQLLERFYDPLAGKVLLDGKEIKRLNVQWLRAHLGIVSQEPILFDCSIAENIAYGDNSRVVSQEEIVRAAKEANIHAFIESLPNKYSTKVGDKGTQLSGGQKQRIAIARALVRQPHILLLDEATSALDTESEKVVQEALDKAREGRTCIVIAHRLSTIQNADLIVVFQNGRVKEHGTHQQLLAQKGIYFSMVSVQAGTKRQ
Put plainly: Calcein AM efflux assay (FACS). The series is classed as cell-based. On the procedure: (§1) The rhodamine and calcein efflux assays were performed as previously described with minor modifications (Lee et al. (1994) Mol. Pharmacol. 46: 627-638; Versantvoort et al. (1995) Int. J. Cancer 63: 855-862.) Suspensions of logarithmic phase cells were obtained from tissue culture flasks by trypsinization and transferred into round-bottom 96-well plates. […] After the efflux period, the cells were washed with DPBS and placed on ice. A FACSort flow cytometer (Becton Dickinson, San Jose, Calif.) with a 488-nm argon laser was used to analyze the samples. Rhodamine 123 or calcein fluorescence was collected after a 530 nm bandpass filter. A minimum of 10,000 events was collected per sample and the samples were gated on forward scatter versus side scatter to exclude clumps and debris; dead cells were excluded based on propidium iodide staining.
Calcein AM can be used to detect both Pgp and MRP-mediated efflux. Calcein permeates the cell in neutral form as an acetomethoxyester, calcein AM. Esterase activity cleaves the AM group leaving calcein as a fluorescent organic anion.

The subject of series [1] is S1 parental cells (low endogenous level of Pgp). Briefly: Rhodamine efflux assay (flow cytometry). It counts as cell-based, human. On the procedure:
as §1
(§2) To provide confirmation, rhodamine efflux assays were performed. […] After an accumulation and efflux period, rhodamine fluorescence was quantitated by flow cytometric analysis. The results are depicted in FIG. 2. […] PSC 833, a cyclosporin-D analog, was used as a positive control for Pgp antagonism.
(In general: Flow cytometry measures light scatter and fluorescence of single cells or particles in a stream.)

Series [2] concerns the target Pgp (Pgp-overexpressing S1-B1-20 cells) (Homo sapiens, UniProt P08183). On the procedure:
as §1, §2

Each structure is given as a SMILES string.

Chain of Pgp (Pgp-overexpressing S1-B1-20 cells) (P08183 whole entry): as above

`COc1cc2c(cc1OC)CN(CCc1ccc(NC(=O)c3cccc4c(=O)c5cccc(OC)c5[nH]c34)cc1)CC2` [GF120918]: the “toxicity in phase I clinical trials” value in the series with patients is on record as “little toxicity”. At MXR (S1-M1-80 cells), the “concentration at which an effect on rhodamine efflux was observed” value is 1000 nM. In addition, the “block of calcein AM efflux” value at Pgp (S1-B1-20 cells) (Pgp-expressing S1-B1-20 cells) is listed as “able to block efflux”. At Pgp (S1-B1-20 cells) (calcein-AM efflux), the “type of inhibition of Pgp” value was “non-competitive inhibitor”. Besides, in series [1], the “effect on rhodamine accumulation and efflux” value was “small increase in rhodamine accumulation and a decrease in efflux”. Besides, in series [2], the “concentration giving complete inhibition of rhodamine efflux” value was 250 nM and the “lowest concentrations at which rhodamine 123 efflux was decreased” value lay within 25 to 50 nM.

These data come from US6521635B1, “Inhibition of MXR transport by acridine derivatives” (priority 2000, dated 2003).
